Assays:
[1] = molecular target: T1, Alpha-2B adrenergic receptor (Homo sapiens, UniProt P18089)
T1 sequence (P18089 whole entry): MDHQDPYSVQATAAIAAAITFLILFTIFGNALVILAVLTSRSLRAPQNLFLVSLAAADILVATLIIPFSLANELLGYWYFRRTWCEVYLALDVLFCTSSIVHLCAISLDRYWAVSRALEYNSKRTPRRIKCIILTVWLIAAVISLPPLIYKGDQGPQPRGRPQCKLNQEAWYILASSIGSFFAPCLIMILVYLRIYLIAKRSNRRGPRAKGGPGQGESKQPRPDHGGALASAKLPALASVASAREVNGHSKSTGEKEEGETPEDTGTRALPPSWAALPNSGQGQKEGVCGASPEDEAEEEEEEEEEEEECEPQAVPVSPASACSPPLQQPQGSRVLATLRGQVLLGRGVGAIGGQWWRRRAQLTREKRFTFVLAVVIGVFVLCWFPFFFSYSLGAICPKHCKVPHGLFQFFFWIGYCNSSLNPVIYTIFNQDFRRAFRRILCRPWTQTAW

[2] = molecular target: T2, Alpha-2C adrenergic receptor (Homo sapiens, UniProt P18825); type: functional
T2 sequence (P18825 whole entry): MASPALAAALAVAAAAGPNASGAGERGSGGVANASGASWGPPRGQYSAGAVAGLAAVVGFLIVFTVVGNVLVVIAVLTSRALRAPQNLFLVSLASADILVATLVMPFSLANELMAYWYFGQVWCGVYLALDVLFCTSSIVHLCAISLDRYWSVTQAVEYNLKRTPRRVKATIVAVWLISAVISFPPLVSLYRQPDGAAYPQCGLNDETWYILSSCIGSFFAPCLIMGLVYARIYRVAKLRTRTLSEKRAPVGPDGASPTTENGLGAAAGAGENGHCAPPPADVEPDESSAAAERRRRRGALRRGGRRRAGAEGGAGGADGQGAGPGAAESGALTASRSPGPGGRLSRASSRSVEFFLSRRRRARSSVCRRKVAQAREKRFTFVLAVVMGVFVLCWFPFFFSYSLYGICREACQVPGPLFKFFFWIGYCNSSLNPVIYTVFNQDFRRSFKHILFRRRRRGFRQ

[3] = molecular target: Beta-1 adrenergic receptor (Homo sapiens, UniProt P08588); type: functional
Beta-1 adrenergic receptor, sequence (P08588 whole entry): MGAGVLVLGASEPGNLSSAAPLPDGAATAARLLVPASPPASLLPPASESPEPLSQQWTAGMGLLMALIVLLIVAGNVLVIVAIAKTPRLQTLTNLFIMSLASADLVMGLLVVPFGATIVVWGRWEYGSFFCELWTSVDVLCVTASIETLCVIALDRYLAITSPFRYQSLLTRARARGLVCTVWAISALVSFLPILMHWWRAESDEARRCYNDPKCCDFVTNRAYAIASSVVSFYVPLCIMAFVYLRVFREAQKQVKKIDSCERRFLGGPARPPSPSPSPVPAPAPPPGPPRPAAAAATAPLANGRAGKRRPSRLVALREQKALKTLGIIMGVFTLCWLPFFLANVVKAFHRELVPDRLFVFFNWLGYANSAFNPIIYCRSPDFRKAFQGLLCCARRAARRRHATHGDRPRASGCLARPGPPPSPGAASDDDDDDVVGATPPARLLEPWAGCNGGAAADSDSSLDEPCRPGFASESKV

Cannabinoid receptor 1 = Cannabinoid receptor 1 (Homo sapiens, UniProt P21554); type: functional, cell-based
Cannabinoid receptor 1, sequence (P21554 whole entry): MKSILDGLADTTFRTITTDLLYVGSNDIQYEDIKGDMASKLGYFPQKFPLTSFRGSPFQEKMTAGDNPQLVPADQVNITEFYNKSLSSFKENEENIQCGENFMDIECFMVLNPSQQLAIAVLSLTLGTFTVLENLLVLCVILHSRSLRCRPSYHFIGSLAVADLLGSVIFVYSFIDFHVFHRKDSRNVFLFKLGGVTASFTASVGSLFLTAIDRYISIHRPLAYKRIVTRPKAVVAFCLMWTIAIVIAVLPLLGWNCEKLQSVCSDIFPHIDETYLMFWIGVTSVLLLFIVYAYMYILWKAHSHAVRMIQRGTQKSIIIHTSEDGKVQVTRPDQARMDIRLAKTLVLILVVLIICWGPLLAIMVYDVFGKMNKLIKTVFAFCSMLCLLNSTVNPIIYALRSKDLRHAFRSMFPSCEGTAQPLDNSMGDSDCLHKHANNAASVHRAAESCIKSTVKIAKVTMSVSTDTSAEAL

[4] = molecular target: 5-hydroxytryptamine receptor 2B (Homo sapiens, UniProt P41595); type: functional, cell-based
5-hydroxytryptamine receptor 2B, sequence (P41595 whole entry): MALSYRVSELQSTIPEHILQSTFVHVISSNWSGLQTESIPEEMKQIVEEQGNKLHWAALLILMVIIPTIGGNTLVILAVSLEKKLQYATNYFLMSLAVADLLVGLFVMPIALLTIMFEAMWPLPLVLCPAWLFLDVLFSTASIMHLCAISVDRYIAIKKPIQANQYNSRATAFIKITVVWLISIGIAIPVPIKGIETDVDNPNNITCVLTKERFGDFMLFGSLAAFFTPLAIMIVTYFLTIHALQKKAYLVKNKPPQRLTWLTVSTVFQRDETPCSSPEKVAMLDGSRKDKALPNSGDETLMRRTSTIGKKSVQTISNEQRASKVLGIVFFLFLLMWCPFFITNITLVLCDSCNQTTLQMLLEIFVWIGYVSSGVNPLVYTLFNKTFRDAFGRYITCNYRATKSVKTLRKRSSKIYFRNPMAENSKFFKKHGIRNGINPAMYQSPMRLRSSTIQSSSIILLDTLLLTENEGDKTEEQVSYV

Mu-type opioid receptor = Mu-type opioid receptor (Homo sapiens, UniProt P35372); assay: biochemical; type: functional
Mu-type opioid receptor, sequence (P35372 whole entry): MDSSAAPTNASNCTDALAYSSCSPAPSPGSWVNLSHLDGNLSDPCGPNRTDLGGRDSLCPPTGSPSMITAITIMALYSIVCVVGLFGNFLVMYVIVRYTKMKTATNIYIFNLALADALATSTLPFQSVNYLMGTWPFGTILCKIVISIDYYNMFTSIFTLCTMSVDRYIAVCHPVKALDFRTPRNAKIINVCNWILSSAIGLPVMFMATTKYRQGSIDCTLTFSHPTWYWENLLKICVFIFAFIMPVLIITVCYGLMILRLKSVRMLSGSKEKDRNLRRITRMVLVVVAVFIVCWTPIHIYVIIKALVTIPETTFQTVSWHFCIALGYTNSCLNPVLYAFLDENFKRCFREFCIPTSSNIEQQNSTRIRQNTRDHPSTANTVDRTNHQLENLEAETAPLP

D(3) dopamine receptor = D(3) dopamine receptor (Homo sapiens, UniProt P35462)
D(3) dopamine receptor, sequence (P35462 whole entry): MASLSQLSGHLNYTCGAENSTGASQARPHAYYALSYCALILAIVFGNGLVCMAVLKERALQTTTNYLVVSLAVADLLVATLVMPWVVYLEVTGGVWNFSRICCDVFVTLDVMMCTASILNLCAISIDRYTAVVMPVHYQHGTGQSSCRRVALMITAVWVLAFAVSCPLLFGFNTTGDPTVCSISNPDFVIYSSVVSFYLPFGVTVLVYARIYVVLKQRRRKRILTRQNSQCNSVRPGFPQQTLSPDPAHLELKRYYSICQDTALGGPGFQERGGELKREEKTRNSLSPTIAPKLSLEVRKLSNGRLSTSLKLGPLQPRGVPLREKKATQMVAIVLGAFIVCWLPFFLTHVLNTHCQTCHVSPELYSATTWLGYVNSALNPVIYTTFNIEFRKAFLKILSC

Adenosine receptor A3 = molecular target: T3, Adenosine receptor A3 (Homo sapiens, UniProt P0DMS8)
T3 sequence (P0DMS8 whole entry): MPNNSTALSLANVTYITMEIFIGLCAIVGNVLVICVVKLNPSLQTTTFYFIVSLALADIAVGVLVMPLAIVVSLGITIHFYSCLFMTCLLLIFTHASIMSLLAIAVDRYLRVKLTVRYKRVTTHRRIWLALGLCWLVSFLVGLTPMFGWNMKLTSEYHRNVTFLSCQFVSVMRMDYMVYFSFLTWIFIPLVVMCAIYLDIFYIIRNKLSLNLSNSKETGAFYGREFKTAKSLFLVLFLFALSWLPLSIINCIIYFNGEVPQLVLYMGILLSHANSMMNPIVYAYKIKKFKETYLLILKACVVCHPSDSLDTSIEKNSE

[5] = molecular target: T4, Alpha-1A adrenergic receptor (Homo sapiens, UniProt P35348); type: functional, cell-based
T4 sequence (P35348 whole entry): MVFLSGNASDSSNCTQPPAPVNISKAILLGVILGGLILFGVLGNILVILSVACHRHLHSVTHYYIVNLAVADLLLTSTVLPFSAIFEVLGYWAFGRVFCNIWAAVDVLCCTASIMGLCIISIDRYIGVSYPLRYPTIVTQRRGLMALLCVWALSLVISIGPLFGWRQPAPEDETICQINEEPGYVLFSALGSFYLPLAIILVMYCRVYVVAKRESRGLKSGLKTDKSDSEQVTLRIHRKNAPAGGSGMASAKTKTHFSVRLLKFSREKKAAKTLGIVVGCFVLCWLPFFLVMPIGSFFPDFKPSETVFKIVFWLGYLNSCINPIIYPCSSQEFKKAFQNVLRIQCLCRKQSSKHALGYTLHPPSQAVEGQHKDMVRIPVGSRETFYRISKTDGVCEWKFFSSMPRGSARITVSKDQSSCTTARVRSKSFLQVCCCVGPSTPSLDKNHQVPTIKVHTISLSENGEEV

Histamine H3 receptor = Histamine H3 receptor (Homo sapiens, UniProt Q9Y5N1)
Histamine H3 receptor, sequence (Q9Y5N1 whole entry): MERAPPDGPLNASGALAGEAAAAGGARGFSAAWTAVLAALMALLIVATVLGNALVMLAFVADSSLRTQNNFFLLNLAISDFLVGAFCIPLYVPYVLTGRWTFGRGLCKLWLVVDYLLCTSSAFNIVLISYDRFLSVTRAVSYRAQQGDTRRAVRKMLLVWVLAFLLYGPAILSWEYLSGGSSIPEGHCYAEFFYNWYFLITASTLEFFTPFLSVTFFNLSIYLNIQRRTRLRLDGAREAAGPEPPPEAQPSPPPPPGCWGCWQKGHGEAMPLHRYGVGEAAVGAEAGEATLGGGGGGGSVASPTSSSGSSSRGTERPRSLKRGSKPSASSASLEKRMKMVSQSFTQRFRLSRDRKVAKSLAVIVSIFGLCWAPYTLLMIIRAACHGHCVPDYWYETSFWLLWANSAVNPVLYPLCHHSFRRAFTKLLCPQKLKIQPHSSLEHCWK

[6] = molecular target: T5, 5-hydroxytryptamine receptor 1A (Homo sapiens, UniProt P08908)
T5 sequence (P08908 whole entry): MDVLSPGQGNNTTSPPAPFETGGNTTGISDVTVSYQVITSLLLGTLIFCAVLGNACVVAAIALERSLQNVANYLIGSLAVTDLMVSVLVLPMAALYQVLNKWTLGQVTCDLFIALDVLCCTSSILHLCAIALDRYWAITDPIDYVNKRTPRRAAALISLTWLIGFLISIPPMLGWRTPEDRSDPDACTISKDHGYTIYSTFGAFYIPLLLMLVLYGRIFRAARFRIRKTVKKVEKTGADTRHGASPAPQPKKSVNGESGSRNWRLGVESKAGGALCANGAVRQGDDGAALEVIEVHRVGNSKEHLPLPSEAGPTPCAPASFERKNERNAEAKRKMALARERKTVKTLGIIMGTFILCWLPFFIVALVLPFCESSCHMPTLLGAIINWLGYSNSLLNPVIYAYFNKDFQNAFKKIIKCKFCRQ

[7] = molecular target: 3',5'-cyclic-AMP phosphodiesterase 4A (Homo sapiens, UniProt P27815); type: functional
3',5'-cyclic-AMP phosphodiesterase 4A, sequence (P27815 whole entry): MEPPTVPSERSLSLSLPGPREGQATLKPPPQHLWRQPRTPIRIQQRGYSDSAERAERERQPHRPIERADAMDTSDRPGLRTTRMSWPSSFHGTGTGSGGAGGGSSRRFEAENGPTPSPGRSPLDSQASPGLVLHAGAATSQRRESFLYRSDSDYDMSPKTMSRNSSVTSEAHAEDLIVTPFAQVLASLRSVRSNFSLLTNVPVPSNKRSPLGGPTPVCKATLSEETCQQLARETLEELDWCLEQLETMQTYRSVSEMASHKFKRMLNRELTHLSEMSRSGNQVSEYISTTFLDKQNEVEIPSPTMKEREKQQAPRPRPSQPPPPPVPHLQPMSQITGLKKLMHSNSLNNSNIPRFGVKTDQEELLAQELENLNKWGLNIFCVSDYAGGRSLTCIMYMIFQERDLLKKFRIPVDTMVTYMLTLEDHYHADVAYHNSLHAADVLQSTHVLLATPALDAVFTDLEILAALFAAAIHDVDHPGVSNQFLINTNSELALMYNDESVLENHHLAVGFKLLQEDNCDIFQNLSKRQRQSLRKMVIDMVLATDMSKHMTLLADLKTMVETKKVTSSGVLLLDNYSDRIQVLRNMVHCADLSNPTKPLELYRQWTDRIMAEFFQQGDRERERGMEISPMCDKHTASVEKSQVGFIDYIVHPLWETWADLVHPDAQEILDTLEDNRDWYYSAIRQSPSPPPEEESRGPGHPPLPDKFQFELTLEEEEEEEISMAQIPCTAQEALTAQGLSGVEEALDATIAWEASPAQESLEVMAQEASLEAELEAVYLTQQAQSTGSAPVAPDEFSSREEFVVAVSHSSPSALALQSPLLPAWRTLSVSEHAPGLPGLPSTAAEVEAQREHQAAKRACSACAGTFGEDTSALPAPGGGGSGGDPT

Thromboxane A2 receptor = molecular target: T6, Thromboxane A2 receptor (Homo sapiens, UniProt P21731); type: functional, cell-based
T6 sequence (P21731 whole entry): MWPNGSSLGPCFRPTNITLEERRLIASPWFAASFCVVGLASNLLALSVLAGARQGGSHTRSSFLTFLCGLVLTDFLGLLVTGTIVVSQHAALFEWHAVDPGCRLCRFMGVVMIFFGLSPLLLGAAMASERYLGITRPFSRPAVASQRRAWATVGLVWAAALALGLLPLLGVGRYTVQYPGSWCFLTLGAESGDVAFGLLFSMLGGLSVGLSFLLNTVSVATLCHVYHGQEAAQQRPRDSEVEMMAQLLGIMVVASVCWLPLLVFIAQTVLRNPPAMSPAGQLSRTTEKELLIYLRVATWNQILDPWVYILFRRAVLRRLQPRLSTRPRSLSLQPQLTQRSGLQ

Measured: AC50
Further: assay procedure not described here.

CCN(CC)C(=O)C1(c2ccccc2)CC1CN (stereo not drawn)
> 30 µM: [1] | [2] | [3] | Cannabinoid receptor 1 | [4] | Mu-type opioid receptor | D(3) dopamine receptor

CN(C)C(=O)Oc1cccc([N+](C)(C)C)c1 [NEOSTIGMINE]
> 30 µM: Adenosine receptor A3 | [5] | Histamine H3 receptor | [6] | [7] | Thromboxane A2 receptor
